Results taken from US6762326B2, “C2-substituted idan-1-ones and their derivatives, processes for their preparation and their use as pharmaceuticals” (Aventis Pharma Deutschland GmbH, priority 2001, dated 2004).

Tested on: female NMRI mice
Assay: Anorectic action: cumulative evaporated milk consumption after 24 h feed removal
Assay type: in vivo
Details: versus control animals
Experimental: The anorectic action was tested on female NMRI mice. After removal of feed for 24 hours, the preparation to be tested was administered intraperitoneally (ip) or by gavage (po). The animals were housed singly and, with free access to drinking water, they were offered evaporated milk 30 minutes after administration of the preparation. The consumption of evaporated milk was determined and the general behavior of the animals was monitored every half an hour for 7 hours. The measured milk consumption was compared to that of vehicle-treated control animals.

CS(=O)(=O)C1Cc2cc(Cl)ccc2C1=O (stereo not drawn) [Example 2, 5-Chloro-2-methanesulfonylindan-1-one]
Reduction in cumulative milk consumption as % of the control (20 mg/kg ip): 70%

CSC1Cc2cc(Cl)ccc2C1=O (stereo not drawn) [Example 1, 5-Chloro-2-methylsulfanylindan-1-one]
Reduction in cumulative milk consumption as % of the control (10 mg/kg ip): 64%

C[S+]([O-])C1Cc2cc(Cl)ccc2C1=O (stereo not drawn) [Example 9, 5-chloro-2-methanesulfinylindan-1-one]
Reduction in cumulative milk consumption as % of the control (50 mg/kg po): 73%
